≈ marks a conversion by molar mass, not a printed value.

The nature of data set [1]: maximum solubility in NMP. The format is physicochemical. As to conditions: organic solvent or mixture; in NMP (N-methylpyrrolidin-2-one).
The conditions of data set [2]: cited from earlier work.

As usually defined, the solubility is the concentration that dissolves in the medium under given conditions. In the case of `CC(=O)O[C@H]1C(=O)[C@@]2(C)[C@H]([C@H](OC(=O)c3ccccc3)[C@]3(O)C[C@H](OC(=O)[C@H](O)[C@@H](NC(=O)c4ccccc4)c4ccccc4)C(C)=C1C3(C)C)[C@]1(OC(C)=O)CO[C@@H]1C[C@@H]2O` [Paclitaxel], the solubility in data set [1] was about 40 mg/mL (≈ 46.8 mM). The “solubility in water (in words)” value in data set [2] is “very poorly water soluble”. Also, the water solubility result in data set [2] (in water) is “less than 10 μg/mL”.
For the molecule `CC(=O)O[C@@]12CO[C@@H]1C[C@H](O)[C@@]1(C)C(=O)[C@H](O)C3=C(C)[C@@H](OC(=O)[C@H](O)[C@@H](NC(=O)OC(C)(C)C)c4ccccc4)C[C@@](O)([C@@H](OC(=O)c4ccccc4)[C@H]21)C3(C)C` [Docetaxel], the solubility in data set [1] is about 40 mg/mL (≈ 49.5 mM). Also, the “solubility in water (in words)” value in data set [2] is reported as “very poorly soluble in water”.

Source of the values: patent US6040330A, “Pharmaceutical formulations of taxanes” (BioNumerik Pharmaceuticals, Inc., priority 1999, dated 2000).
